The structures appear in SMILES notation.

In the assay the target is T1, catechol-O-methyltransferase (COMT) (Homo sapiens, UniProt P21964).
T1 construct: M51A variant) was expressed in HEK 293F cells
T1 sequence (P21964 52-271 limits assumed): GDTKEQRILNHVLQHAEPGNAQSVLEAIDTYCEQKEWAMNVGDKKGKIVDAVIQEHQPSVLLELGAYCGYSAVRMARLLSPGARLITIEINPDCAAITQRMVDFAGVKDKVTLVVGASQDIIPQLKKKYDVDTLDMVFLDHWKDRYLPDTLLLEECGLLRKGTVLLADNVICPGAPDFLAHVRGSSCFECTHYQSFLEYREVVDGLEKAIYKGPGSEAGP
The assay can be described thus: COMT inhibition assay (HTRF, production of SAH from SAM). In kind it is biochemical. The conditions noted are these: table does not say MB-COMT or S-COMT. Summed up:
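Membranes from HEK293F cells expressing MB-COMT (M51A variant) incubated with 20 μM SAM and 1.5 μM dopamine plus compound (10 concentrations) for 40 min at 37 °C; S-COMT (Val158) at 0.15 ng/well used 100 μM dopamine, 15 min. SAH measured by HTRF against a standard curve; pIC50 from 4-parameter logistic fit.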

Consider `O=c1cc2n(cc1O)CCN(Cc1cccc(Oc3ccccc3)c1)C2` [Example 36, 7-hydroxy-2-(3-phenoxybenzyl)-1,2,3,4-tetrahydro-8H-pyrido[1,2-a]pyrazin-8-one], for which the “Activity range (pIC50)” value is “+++ (three plus signs (+++) is associated with a pIC50 of above about 7)”. As for `CC(c1ccc(F)cc1)N1CCn2cc(O)c(=O)cc2C1` (stereo not shown) [Example 99, 2-[1-(4-fluorophenyl)ethyl]-7-hydroxy-1,2,3,4-tetrahydro-8H-pyrido[1,2-a]pyrazin-8-one], the “Activity range (pIC50)” value is “++ (two plus signs (++) is associated with a pIC50 of from about 6 to 7)”. As for `O=c1cc2n(cc1O)CCN(C1CC(c3ccccc3)Oc3ccccc31)C2` (stereo not shown) [Example 80, 7-hydroxy-2-(2-phenyl-3,4-dihydro-2H-chromen-4-yl)-1,2,3,4-tetrahydro-8H-pyrido[1,2-a]pyrazin-8-one], the “Activity range (pIC50)” value is reported as “++ (two plus signs (++) is associated with a pIC50 of from about 6 to 7)”. `O=c1cc2n(cc1O)CCN(Cc1cc(F)cc(F)c1)C2` [Example 32, 2-(3,5-difluorobenzyl)-7-hydroxy-1,2,3,4-tetrahydro-8H-pyrido[1,2-a]pyrazin-8-one]: the “Activity range (pIC50)” value is reported as “++ (two plus signs (++) is associated with a pIC50 of from about 6 to 7)”. The result for `O=c1cc2n(cc1O)CCN(c1ccccc1OC(F)(F)F)C2` [Example 114, 7-hydroxy-2-[2-(trifluoromethoxy)phenyl]-1,2,3,4-tetrahydro-8H-pyrido[1,2-a]pyrazin-8-one] reads “++ (two plus signs (++) is associated with a pIC50 of from about 6 to 7)”; that for `O=c1cc2n(cc1O)CCN(Cc1ccccc1)C2Cc1ccccc1` (stereo not shown) [Example 115, 1,2-dibenzyl-7-hydroxy-1,2,3,4-tetrahydro-8H-pyrido[1,2-a]pyrazin-8-one], “++ (two plus signs (++) is associated with a pIC50 of from about 6 to 7)”.

Take `O=c1cc2n(c(F)c1O)CCN(Cc1ccccc1Cl)C2` [Example 134, 6-fluoro-7-hydroxy-2-[[2-chlorophenyl]methyl]-3,4-dihydro-1H-pyrido[1,2-a]pyrazin-8-one]: the “Activity range (pIC50)” value is reported as “++ (two plus signs (++) is associated with a pIC50 of from about 6 to 7)”. In the case of `CCc1ccc(CN2CCn3cc(O)c(=O)cc3[C@@H]2c2ccccc2)cc1` (single isomer, unassigned) [Example 119], the “Activity range (pIC50)” value is on record as “+++ (three plus signs (+++) is associated with a pIC50 of above about 7)”. Turning to `CC(c1c(F)ccc(Cl)c1F)N1CCn2cc(O)c(=O)cc2C1` (stereo not shown) [Example 85, 2-[1-(3-chloro-2,6-difluorophenyl)ethyl]-7-hydroxy-1,2,3,4-tetrahydro-8H-pyrido[1,2-a]pyrazin-8-one], the “Activity range (pIC50)” value is “+++ (three plus signs (+++) is associated with a pIC50 of above about 7)”. In the case of `O=c1cc2n(c(F)c1O)CCN(Cc1ccc(OC(F)(F)F)cc1)C2` [Example 135, 2-[(4-(trifluoromethoxy)phenyl)methyl]-6-fluoro-7-hydroxy-3,4-dihydro-1H-pyrido[1,2-a]pyrazin-8-one], the “Activity range (pIC50)” value is on record as “++ (two plus signs (++) is associated with a pIC50 of from about 6 to 7)”. As for `O=c1cc2n(cc1O)CCN(Cc1ccc(F)cc1)C2` [Example 3, 2-[(4-fluorophenyl)methyl]-7-hydroxy-3,4-dihydro-1H-pyrido[1,2-a]pyrazin-8-one], the “Activity range (pIC50)” value is given as “+ (a single plus (+) is associated with a pIC50 of from about 4.5 to 6)”. With `O=c1cc2n(cc1O)CCN(C(c1ccccc1)C(F)F)C2` (stereo not shown) [Example 107, 2-(2,2-difluoro-1-phenyl-ethyl)-7-hydroxy-3,4-dihydro-1H-pyrido[1,2-a]pyrazin-8-one], the “Activity range (pIC50)” value is on record as “+++ (three plus signs (+++) is associated with a pIC50 of above about 7)”. `Cc1nn(C)c(Cl)c1CN1CCn2cc(O)c(=O)cc2C1` [Example 40, 2-[(5-chloro-1,3-dimethyl-1H-pyrazol-4-yl)methyl]-7-hydroxy-1,2,3,4-tetrahydro-8H-pyrido[1,2-a]pyrazin-8-one]: the “Activity range (pIC50)” value is reported as “++ (two plus signs (++) is associated with a pIC50 of from about 6 to 7)”.

These data come from patent US10934283B2, “COMT inhibiting methods and compositions” (LIEBER INSTITUTE FOR BRAIN DEVELOPMENT, priority 2015, dated 2021).
